Measured values: PubChem BioAssay (NCI)
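The compound was tested at five concentrations on cells cultured in 96-well plates, with a 48-hour exposure period. The concentration for full growth arrest is given as TGI.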

Test system: RXF-631 renal
Assay: inhibition of tumour cell growth, NCI panel, 48 h

O=C(c1ccccc1)c1ccc2n[se]nc2c1
TGI: > 100 µM
